Data reported in patent publication EP2210584A1, “Stable polymeric composition comprising an epothilone and an amphiphilic block copolymer” (priority 2009, dated 2010).

Test: Detection of degradation products of sagopilone by HPLC chromatogram
Type: physicochemical
Conditions: storage of 24 hours at 4°C
Experimental: The method for measuring the sagopilone content of the micellar dispersions as well as the detection of degradation products is determined by High Performance Liquid Chromatography. The analysis was done on a Agilent 1100 Series chromatography system consisting of a quaternary pump, an autoinjector, a column heater and a UV-detector from Agilent Technologies, Santa Clara, USA .

For `C=CC[C@H]1C(=O)C(C)(C)[C@@H](O)CC(=O)O[C@H](c2ccc3sc(C)nc3c2)C[C@@H]2O[C@]2(C)CCC[C@H](C)[C@@H]1O` [Sagopilone, (1S,3S,7S,10R,11S,12S,16R)-7,11-dihydroxy-10-(prop-2-en-1-yl)-3-(2-methylbenzothiazol-5-yl)-8,8,12,16-tetramethyl-4,17-dioxabicyclo[14.1.0]heptadecane-5,9-dione], the “degradation of Sagopilone solubilized within the polymeric micelles” value was “did not degrade”.
